Here are results for five molecules from US20060223812A1, “Treating neurodegenerative conditions” (MAX-PLANCK-GESELLSCHAFT ZUR FORDERUNGDER WISSENSCHAFTEN, …, priority 2004, published 2006).

One assay relates to K18/ΔK280/Y310W. Put plainly: Tryptophan fluorescence inhibition assay, K18/ΔK280/Y310W. In kind it is biochemical, human. Conditions: 60 μM compound. The text has this:
In order to exclude a possible distortion of the data by the dye the results of the ThS assays can be confirmed by a tryptophan fluorescence assay (Li et al., 2002). It allows the detection of the molecular environment of a tryptophan introduced instead of tyrosine 310 whose emission maximum is sensitive to the burial in a more hydrophobic surrounding upon PHF formation. Therefore the mutants K19/Y310W (FIG. 1I) and K18/Y310W (FIG. 1H) that contain a single tryptophan within the core of the PHF structure were created. In the soluble protein the emission maximum lies at ˜354 nm, whereas it shifts to 340 nm upon PHF formation (FIG. 3A, compare first and second entry). […]
The fluorescence experiments were performed on a Spex Fluoromax spectrophotometer (Polytec, Waldbronn, Germany) using 3 mm×3 mm micro cuvettes from Hellma (Mühlheim, Germany) with 20 μl sample volumes. […] The slit widths were 5 nm, the integration time was 0.25 second, and the photomultiplier voltage was 950 V. For fluorescence inhibition assay, 60 μM compounds were incubated with K19/Y310W construct (10 μM) or K18/ΔK280/Y310W and heparin (2.5 μM) in PBS, pH 7.4 three days at 37° C. […]
(A-C) fluorescence emission maximum of the single tryptophan W310 inserted by site-directed mutagenesis into tau constructs K19 (FIG. 3A), K18 (FIG. 3B) and K18/ΔK280 (FIG. 3C). […]

A further assay has as its system K18/Y310W. Put plainly: Tryptophan fluorescence inhibition assay, K18/Y310W. As to conditions: 60 μM compound. It is filed as biochemical, human. The text has this:
In order to exclude a possible distortion of the data by the dye the results of the ThS assays can be confirmed by a tryptophan fluorescence assay (Li et al., 2002). It allows the detection of the molecular environment of a tryptophan introduced instead of tyrosine 310 whose emission maximum is sensitive to the burial in a more hydrophobic surrounding upon PHF formation. Therefore the mutants K19/Y310W (FIG. 1I) and K18/Y310W (FIG. 1H) that contain a single tryptophan within the core of the PHF structure were created. In the soluble protein the emission maximum lies at ˜354 nm, whereas it shifts to 340 nm upon PHF formation (FIG. 3A, compare first and second entry). The emission peak can be shifted back by incubation at high concentrations of GuHCl which is due to the disassembly of the PHFs (FIG. 3A, fourth entry).
The fluorescence experiments were performed on a Spex Fluoromax spectrophotometer (Polytec, Waldbronn, Germany) using 3 mm×3 mm micro cuvettes from Hellma (Mühlheim, Germany) with 20 μl sample volumes. A tryptophan emission spectrum scans from 300 to 450 nm at fixed excitation wavelength of 290 nm. The slit widths were 5 nm, the integration time was 0.25 second, and the photomultiplier voltage was 950 V. For fluorescence inhibition assay, 60 μM compounds were incubated with K19/Y310W construct (10 μM) or K18/ΔK280/Y310W and heparin (2.5 μM) in PBS, pH 7.4 three days at 37° C.
In the Trp fluorescence assay the inhibition of PHF assembly becomes apparent if the emission maximum of Trp310 remains higher than that of the control without any compound, because Trp310 remains in a more solvent-accessible hydrophilic environment. The three repeat tau construct K19 (at 10 μM) was prevented from polymerisation by about 90% by the presence of all compounds at a concentration, of 60 μM (FIG. 3A, note that entries 5-9 retain their values around 354 nm, similar to the control #1). […] The internal ranking stays roughly the same as with K18; PHF005 (#9) is the best, PHF016 (#8) the worst inhibitor. […] The apparent degrees of inhibition differ somewhat between the ThS fluorescence and the intrinsic Trp fluorescence assays, but this may be due to the different origins of the signal. In the ThS assay the dye has to bind to the filaments, which requires a minimal length of the fibres. The tryptophan fluorescence assay depends on the local surrounding of the residue and is therefore less dependent on the length of the filaments.
(A-C) fluorescence emission maximum of the single tryptophan W310 inserted by site-directed mutagenesis into tau constructs K19 (FIG. 3A), K18 (FIG. 3B) and K18/ΔK280 (FIG. 3C). Fully solvent-accessible Trp has an emission maximum at ˜355 nm, a blue-shift to lower wavelengths is an indicator of PHF aggregation. […]

The target of a further assay is T1, PHFs from htau23 (Homo sapiens, UniProt P10636).
T1 construct: made in house; host or cells: E. coli
T1 sequence (P10636 1-352 isoform P10636-2): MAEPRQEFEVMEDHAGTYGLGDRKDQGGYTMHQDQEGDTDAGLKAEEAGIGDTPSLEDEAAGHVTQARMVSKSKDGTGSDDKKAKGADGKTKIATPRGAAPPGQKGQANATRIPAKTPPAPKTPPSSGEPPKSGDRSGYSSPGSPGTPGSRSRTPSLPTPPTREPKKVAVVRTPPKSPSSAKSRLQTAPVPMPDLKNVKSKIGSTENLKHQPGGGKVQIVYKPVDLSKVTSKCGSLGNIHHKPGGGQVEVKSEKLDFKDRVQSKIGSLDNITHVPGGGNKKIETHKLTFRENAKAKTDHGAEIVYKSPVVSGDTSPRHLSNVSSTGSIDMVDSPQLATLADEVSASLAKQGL
Put plainly: Filter trapping assay, depolymerisation of PHFs. In kind it is biochemical. As to conditions: PVDF filter, antibody K9JA. Here is the method:
The effect of compounds on the depolymerisation of PHFs was analysed using a filter trapping assay. This assay monitors aggregated tau which is trapped on a membrane filter, whereas the soluble protein is washed through. Therefore the technique preferably detects larger filaments, similar to the ThS assay.
Aggregates of tau were trapped by filtration through a PVDF-membrane (pore diameter 0.45 μm, Schleicher and Schuell, Düren, Germany) adapted to 96-well dot blot apparatus. The PVDF-membrane was wetted with methanol and rinsed with PBS-buffer before incorporated into the dot blot apparatus. The samples were pipetted into 100 μl of PBS and filtered. The membrane was washed three times with PBS before taken out of the apparatus and blocked with 5% milk powder in PBS for 30 minutes in a rotational shaker at room temperature. The polyclonal antibody K9JA was used as primary antibody and incubated at a dilution of 1:20.000 at room temperature for one hour. […] After three times washing with TBS-Tween the signal was detected using the ECL system (Amersham Pharmacia) and pictures were taken with the digital gel documentation system Fuji film BAS3000 (Raytest, Straubenhardt, Germany). Quantification of the signals was performed with the AIDA-software package (Raytest, Straubenhardt, Germany).
(D) Depolymerisation of PHFs from htau23 measured by filter assay. […]

The subject of assay [1] is N2a cells expressing K18/ΔK280. Description: Tau aggregation in cells, thioflavine S staining. In kind it is cell-based, mouse. Conditions: 15 μM emodin. Here is the method: The tau construct K18/ΔK280 was expressed in the mouse neuroblastoma cell line N2a in an inducible manner under the control of the reverse tetracycline-controlled transactivator (rtTA) as described elsewhere (Gossen & Bujard, 2002). The inducible N2a/K18ΔK280 cells were cultured in MEM medium supplemented with 10% fetal calf serum, 2 mM glutamine and 0.1% nonessential amino acids. The expression of K18/ΔK280 was induced by addition 1 μg doxycyclin per 1 ml medium. The effect of aggregation inhibition was observed by adding the inhibitor emodin (15 μM). After 3-7 days the cells were harvested and tested for tau aggregation, thioflavin S fluorescence, and viability.
The levels and solubility of the K18/ΔK280 tau protein were determined by the method of Greenberg and Davies (1990) which makes use of the insolubility of protein aggregates after treatment with sarkosyl. The supernatant and sarcosyl-insoluble pellets were analysed by Western blotting with the pan-tau antibody K9JA and analysed by densitometry. Aggregation of tau in cells was tested by the fluorescence of thioflavine S. ThS signals were scored in three independent fields containing 40 cells each.
Two parallel cell cultures were incubated, one with 1 μg/ml doxycyclin (to induce the expression of the protein), another with 1 μg/ml doxycyclin and 15 μM emodin for 3 days. […]

Consider `O=C(c1ccccc1)c1ccc(O)c(O)c1O` [PHF005, 1-Phenyl-1-(2,3,4-trihydroxy-phenyl)-methanone], for which the “ranking as inhibitor, K18/ΔK280, Trp fluorescence” value in the assay with K18/ΔK280/Y310W is recorded as “best”.

As to `O=C1c2ccc(O)c(O)c2C(=O)c2c(O)ccc(O)c21` [PHF016, 1,2,5,8-Tetrahydroxy-anthraquinone], the “inhibition of PHF formation, K18/Y310W, Trp fluorescence” value (“inhibition of PHF formation, K18/Y310W” below) in the assay with K18/Y310W is given as 25%. Moreover, the “ranking as inhibitor, K18/ΔK280, Trp fluorescence” value in the assay with K18/ΔK280/Y310W is “worst”.

`COc1cccc2c1C(=O)c1c(O)c3c(c(O)c1C2=O)CC(O)(C(C)=O)CC3OC1CC(N)C(O)C(C)O1` (stereo not drawn) [Daunorubicin, 8-Acetyl-10-(4-amino-5-hydroxy-6-methyl-tetrahydro-pyran-2-yloxy)-6,8,11-trihydroxy-1-methoxy-7,8,9,10-tetrahydro-naphthacene-5,12-dione, reference compound]: the “inhibition of PHF formation, K18/Y310W” value in the assay with K18/Y310W is on record as “about 70%”.

Take `COc1cccc2c1C(=O)c1c(O)c3c(c(O)c1C2=O)CC(O)(C(=O)CO)CC3OC1CC(N)C(O)C(C)O1` (stereo not drawn) [Adriamycin, 10-(4-Amino-5-hydroxy-6-methyl-tetrahydro-pyran-2-yloxy)-6,8,11-trihydroxy-8-(2-hydroxyethanoyl)-1-methoxy-7,8,9,10-tetrahydro-naphthacene-5,12-dione, reference compound]: in the assay on K18/Y310W, the “inhibition of PHF formation, K18/Y310W” value is “about 70%”.

Take `Cc1cc(O)c2c(c1)C(=O)c1cc(O)cc(O)c1C2=O` [Emodin, 1,3,8-Trihydroxy-6-methyl-anthraquinone]: in the assay with K18/Y310W, the “inhibition of PHF formation, K18/Y310W” value is “about 70%”. The molecule further yielded a DC50 at PHFs from htau23 of roughly 500 nM. Besides, in assay [1], the “inhibition of aggregation as measured by ThS” value is “about 2 fold”. In addition, the “cells with ThS signal” value in assay [1] (3 days induction, without emodin 28%) is 15%.
